Consider 3 compounds from patent EP3074024B1, “ANTIMICROBIAL COMPOSITIONS FOR USE IN PRODUCTS FOR PETROLEUM EXTRACTION, PERSONAL CARE, WOUND CARE AND OTHER APPLICATIONS” (Agienic Inc., priority 2013, dated 2015).

The conditions of data set [1]: room temperature; cited from earlier work.
For data set [2], the system named is Desulfovibrio vulgaris (ATCC 29579). Put plainly: Activity against sulfate reducing bacteria (3-tube MPN). Type of data set: cell-based. Particulars: 10ppm; one hour of contact time; starting 2x10^7 mpn/ml; SRB2 media.
Method: D. vulgaris was cultured for 2 days prior to experiment in SRB 2 media (Intertek). From this culture, 2 ml of inoculum was added to 18 ml anaerobic phosphate buffered saline (PBS).
Each concentration was tested in duplicate. […] The sealed bottles were incubated at room temperature (23°C) without agitation.
An initial sample was taken from the positive control to establish a starting concentration of bacteria for the experiment. 0.5 ml samples were taken at 1 hour time point and diluted in 4.5 ml anaerobic Dey/Engely (D/E) neutralizing broth to neutralize the Cu bacteriocide. A 1:10 dilution series was made using anaerobic PBS. Bacterial numbers were quantified by a 3-tube most probable number (MPN) method. Three tubes of anaerobic modified Baar's media (10 ml each) per dilution were inoculated with 1 ml each from their respective diluted sample. These tubes were incubated at 37°C for 72 hours. Positive samples were evaluated based on the presence of iron sulfide (FeS), which forms a black precipitate as a byproduct of hydrogen sulfide produced by bacterial growth reacting with iron included in the modified Baar's media.
All test media (PBS, D/E and modified Baar's media) were pretreated with 100 µl Oxyrase oxygen scavengers (obtained from Oxyrase Inc, Mansfield, OH) to render the test media anaerobic. […]

With `[Cu][Br]` [CuBr, Copper bromide], the “Water solubility” value in data set [1] is 11 µg/mL. Consider `[Cl][Cu][Cl]` [CuCl2, copper (II) chloride], for which, in data set [2], the log10 reduction entry is listed as “less than 3 log10”. As for `O=CCCCC=O` [gluteraldehyde], the log10 reduction result in data set [2] is “greater than 4.23 log10”.
